Measured values: patent publication US7598245B2 (Vertex Pharmaceuticals Incorporated, priority 2003, dated 2009)
Where two headings read alike, the source gives them in different places.

Key:
FLT-3 = molecular target: T1, FLT-3 (Homo sapiens, UniProt P36888); assay: Inhibition of FLT-3, radiometric filter-binding assay; type: biochemical; conditions: 90 μM ATP, pE4Y substrate
T1 construct: 0.02% BSA and 3 nM FLT-3
T1 sequence (P36888 27-993): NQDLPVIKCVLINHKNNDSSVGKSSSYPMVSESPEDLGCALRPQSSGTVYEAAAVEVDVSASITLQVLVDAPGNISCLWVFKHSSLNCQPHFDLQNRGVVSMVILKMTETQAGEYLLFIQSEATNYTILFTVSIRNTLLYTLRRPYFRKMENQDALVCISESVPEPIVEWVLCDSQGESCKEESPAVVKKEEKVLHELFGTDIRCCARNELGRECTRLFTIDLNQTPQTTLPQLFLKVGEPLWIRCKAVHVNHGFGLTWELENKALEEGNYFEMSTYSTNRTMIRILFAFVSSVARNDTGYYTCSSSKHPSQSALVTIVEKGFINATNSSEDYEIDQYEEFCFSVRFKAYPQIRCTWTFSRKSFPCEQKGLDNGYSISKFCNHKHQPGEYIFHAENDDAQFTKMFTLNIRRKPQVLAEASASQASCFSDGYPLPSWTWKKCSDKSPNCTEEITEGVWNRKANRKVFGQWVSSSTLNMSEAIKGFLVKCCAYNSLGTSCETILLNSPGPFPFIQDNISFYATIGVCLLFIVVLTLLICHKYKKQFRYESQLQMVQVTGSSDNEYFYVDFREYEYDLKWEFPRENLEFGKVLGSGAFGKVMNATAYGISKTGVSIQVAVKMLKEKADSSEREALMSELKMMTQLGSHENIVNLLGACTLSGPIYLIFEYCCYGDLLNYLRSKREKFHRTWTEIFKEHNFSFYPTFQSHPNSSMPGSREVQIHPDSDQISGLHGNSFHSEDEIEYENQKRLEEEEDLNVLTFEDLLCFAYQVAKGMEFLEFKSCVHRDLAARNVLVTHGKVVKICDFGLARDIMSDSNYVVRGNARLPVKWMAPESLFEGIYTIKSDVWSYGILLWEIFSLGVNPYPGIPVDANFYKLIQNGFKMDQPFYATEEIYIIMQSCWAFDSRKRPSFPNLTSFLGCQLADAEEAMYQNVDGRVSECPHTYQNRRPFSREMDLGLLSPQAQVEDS
Description: Compounds were screened for their ability to inhibit FLT-3 activity using a radiometric filter-binding assay. This assay monitors the ^33P incorporation into a substrate poly(Glu, Tyr) 4:1 (pE4Y). Reactions were carried out in a solution containing 100 mM HEPES (pH 7.5), 10 mM MgCl2, 25 mM NaCl, 1 mM DTT, 0.01% BSA and 2.5% DMSO. Final substrate concentrations in the assay were 90 μM ATP and 0.5 mg/mL pE4Y (both from Sigma Chemicals, St Louis, Mo.). The final concentration of compounds is generally between 0.01 and 5 μM. Typically, a 12-point titration was conducted by preparing serial dilutions from 10 mM DMSO stock of test compound. Reactions were carried out at room temperature.
Two assay solutions were prepared. Solution 1 contains 100 mM HEPES (pH 7.5), 10 mM MgCl2, 25 mM NaCl, 1 mg/ml pE4Y and 180 μM ATP (containing 0.3 μCi of [γ-^33P]ATP for each reaction). Solution 2 contains 100 mM HEPES (pH 7.5), 10 mM MgCl2, 25 mM NaCl, 2 mM DTT, 0.02% BSA and 3 nM FLT-3. The assay was run on a 96 well plate by mixing 50 μL each of Solution1 and 2.5 mL of the test compounds. The reaction was initiated with Solution2. After incubation for 20 minutes at room temperature, the reaction was stopped with 50 μL of 20% TCA containing 0.4 mM of ATP. All of the reaction volume was then transferred to a filter plate and washed with 5% TCA by a Harvester9600 from TOMTEC (Hamden, Conn.). The amount of ^33P incorporation into pE4y was analyzed by a Packard TopCount Microplate Scintillation Counter (Meriden, Conn.). The data was fitted using Prism software to get an IC50 or Ki.

human Src kinase = molecular target: T2, human Src kinase (Homo sapiens, UniProt P12931); assay: Src inhibition assay B: spectrophotometric (uv-vis) coupled enzyme assay; type: biochemical; conditions: 100 μM ATP
T2 construct: 25 nM of recombinant human Src kinase
T2 sequence (P12931 whole entry): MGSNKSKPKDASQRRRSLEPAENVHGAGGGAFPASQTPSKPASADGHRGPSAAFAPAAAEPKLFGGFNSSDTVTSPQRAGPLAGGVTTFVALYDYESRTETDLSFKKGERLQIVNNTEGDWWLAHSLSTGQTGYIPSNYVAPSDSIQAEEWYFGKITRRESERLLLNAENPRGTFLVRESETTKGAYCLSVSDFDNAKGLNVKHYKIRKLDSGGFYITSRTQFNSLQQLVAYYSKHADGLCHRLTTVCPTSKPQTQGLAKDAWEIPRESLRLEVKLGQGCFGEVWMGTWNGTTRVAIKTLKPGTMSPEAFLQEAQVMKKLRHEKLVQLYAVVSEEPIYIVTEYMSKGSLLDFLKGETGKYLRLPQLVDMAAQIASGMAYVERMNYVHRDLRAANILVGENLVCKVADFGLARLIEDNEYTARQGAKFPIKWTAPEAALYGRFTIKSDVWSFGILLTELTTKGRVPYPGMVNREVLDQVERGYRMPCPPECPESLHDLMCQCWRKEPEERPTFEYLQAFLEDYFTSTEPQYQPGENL
Description: The compounds are evaluated as inhibitors of human Src kinase using either a radioactivity-based assay or spectrophotometric assay.
Src Inhibition Assay B: Spectrophotometric Assay
The ADP produced from ATP by the human recombinant Src kinase-catalyzed phosphorylation of poly Glu-Tyr substrate is quantified using a coupled enzyme assay [Fox et al. Protein Sci. 1998, 7, 2249]. In this assay one molecule of NADH is oxidised to NAD for every molecule of ADP produced in the kinase reaction. The disappearance of NADH is conveniently followed at 340 nm.
The following are the final concentrations of the assay components: 0.025 M HEPES (pH 7.6), 10 mM MgCl2, 2 mM DTT, 0.25 mg/ml poly Glu-Tyr, and 25 nM of recombinant human Src kinase. Final concentrations of the components of the coupled enzyme system are 2.5 mM phosphoenolpyruvate, 200 μM NADH, 30 μg/ml pyruvate kinase and 10 μg/ml lactate dehydrogenase.
In a typical assay, all the reaction components with the exception of ATP are pre-mixed and aliquoted into assay plate wells. Inhibitors dissolved in DMSO are added to the wells to give a final DMSO concentration of 2.5%. The assay plate is incubated at 30° C. for 10 min before initiating the reaction with 100 μM ATP. The absorbance change at 340 nm with time, the rate of the reaction, is monitored on a molecular devices plate reader. The data of rate as a function of the inhibitor concentration is fitted to competitive inhibition kinetics model to get the Ki for the compound.

[1] = given as IC50 or Ki, read-out: IC50 or Ki values (FLT-3)

Row | Compound | Ki (FLT-3; [1]) [nM] | Ki (FLT-3; read-out: Ki values (FLT-3)) [nM] | Ki (human Src kinase) [nM]
1 | COc1cc(Nc2ncn(-c3ccccc3)n2)cc(OC)c1OC [Compound I-42] | < 100 | 1 to 30 | < 500
2 | COc1cc(Nc2ncn(-c3ccc(C#N)cc3)n2)cc(OC)c1OC [Compound I-43] | < 100 | 1 to 30 | < 500
3 | c1ccc(-n2cnc(Nc3ccc4c(c3)OCCO4)n2)cc1 [Compound I-44] | < 100 | 1 to 30 | 500 to 1000
4 | CCOc1cccc(Nc2ncn(-c3ccccc3)n2)c1 [Compound I-45] | < 100 | 1 to 30 | < 500
5 | CC(C)Oc1cccc(Nc2ncn(-c3ccccc3)n2)c1 [Compound I-46] | < 100 | 1 to 30 | > 1000
6 | CCOc1ccc(Nc2ncn(-c3ccccc3)n2)cc1 [Compound I-47] | < 100 | 30 to 200 | > 1000
7 | c1ccc(Nc2ncn(-c3ccnc(N4CCCCC4)c3)n2)cc1 [Compound I-49, phenyl-[1-(3,4,5,6-tetrahydro-2H-[1,2′]bipyridinyl-4′-yl)-1H-[1,2,4]triazol-3-yl]-amine] |  | < 60 | < 500
8 | c1ccc(Nc2ncn(-c3ccnc(NC4CCCCC4)c3)n2)cc1 [Compound I-50] |  | 1 to 30 | < 500
9 | CN(CCO)c1cc(-n2cnc(Nc3ccccc3)n2)ccn1 [Compound I-51] |  | < 60 | > 1000
10 | c1ccc(Nc2ncn(-c3ccnc(N4CCCCCCC4)c3)n2)cc1 [Compound I-52] |  |  | < 500
11 | CN(C)CCCN(C)c1cc(-n2cnc(Nc3ccccc3)n2)ccn1 [Compound I-53] |  |  | > 1000
12 | CCN(CCO)c1cc(-n2cnc(Nc3ccccc3)n2)ccn1 [Compound I-54] |  |  | < 500
13 | CN(Cc1ccccc1)c1cc(-n2cnc(Nc3ccccc3)n2)ccn1 [Compound I-55] |  | 1 to 30 | 500 to 1000
14 | CC1CCCN1c1cc(-n2cnc(Nc3ccccc3)n2)ccn1 (centres unmarked) [Compound I-56] |  | 1 to 30 | 500 to 1000
15 | CN(Cc1cccnc1)c1cc(-n2cnc(Nc3ccccc3)n2)ccn1 [Compound I-57] |  | 1 to 30 | 500 to 1000
16 | CCCN(CCO)c1cc(-n2cnc(Nc3ccccc3)n2)ccn1 [Compound I-58] |  | 1 to 30 | < 500
17 | COCCN(C)c1cc(-n2cnc(Nc3ccccc3)n2)ccn1 [Compound I-59, (2-methoxy-ethyl)-methyl-[4-(3-phenylamino-[1,2,4]triazol-1-yl)-pyridin-2-yl]-amine] |  | 1 to 30 | > 1000
18 | CCN(CC)CCNc1cc(-n2cnc(Nc3ccccc3)n2)ccn1 [Compound I-60] |  | 30 to 200 | > 1000
19 | CN1C(C)(C)CC(Nc2cc(-n3cnc(Nc4ccccc4)n3)ccn2)CC1(C)C [Compound I-61] |  |  | < 500
20 | CC(C)CCN(C)c1cc(-n2cnc(Nc3ccccc3)n2)ccn1 [Compound I-62, methyl-(3-methyl-butyl)-[4-(3-phenylamino-[1,2,4]triazol-1-yl)-pyridin-2-yl]-amine] |  | 1 to 30 | 500 to 1000

Row | Compound | Ki (FLT-3; [1]) [nM] | Ki (FLT-3; read-out: Ki values (FLT-3)) [nM] | Ki (human Src kinase) [nM]
21 | O=c1[nH]c2ccccc2n1C1CCN(c2cc(-n3cnc(Nc4ccccc4)n3)ccn2)CC1 [Compound I-63] |  | > 200 | > 1000
22 | O=C(C1CCCO1)N1CCN(c2cc(-n3cnc(Nc4ccccc4)n3)ccn2)CC1 (centres unmarked) [Compound I-64] |  | > 200 | > 1000
23 | OC[C@H]1CCCN(c2cc(-n3cnc(Nc4ccccc4)n3)ccn2)C1 [Compound I-65] |  |  | < 500
24 | CC(=O)N1CCCN(c2cc(-n3cnc(Nc4ccccc4)n3)ccn2)CC1 [Compound I-66] |  | < 60 | > 1000
25 | CCC(=O)N1CCCN(c2cc(-n3cnc(Nc4ccccc4)n3)ccn2)CC1 [Compound I-67] |  | 30 to 200 | > 1000
26 | CCCC(=O)N1CCCN(c2cc(-n3cnc(Nc4ccccc4)n3)ccn2)CC1 [Compound I-68] |  | 30 to 200 | > 1000
27 | CC(C)C(=O)N1CCCN(c2cc(-n3cnc(Nc4ccccc4)n3)ccn2)CC1 [Compound I-69] |  | 30 to 200 | > 1000
28 | CC(C)CC(=O)N1CCCN(c2cc(-n3cnc(Nc4ccccc4)n3)ccn2)CC1 [Compound I-70] |  |  | > 1000
29 | COCC(=O)N1CCCN(c2cc(-n3cnc(Nc4ccccc4)n3)ccn2)CC1 [Compound I-71] |  | 30 to 200 | > 1000
30 | N#CCC(=O)N1CCCN(c2cc(-n3cnc(Nc4ccccc4)n3)ccn2)CC1 [Compound I-72] |  | < 60 | 500 to 1000
31 | c1ccc(Nc2ncn(-c3ccnc(N4CCCCCC4)c3)n2)cc1 [Compound I-73] |  | < 60 | < 500
32 | CC(=O)N1[C@H](C)CN(c2cc(-n3cnc(Nc4ccccc4)n3)ccn2)C[C@@H]1C [Compound I-74] |  | < 60 | < 500
33 | CCOC(=O)c1ccc(Nc2ncn(-c3ccnc(N4C[C@@H](C)N(C(C)=O)[C@@H](C)C4)c3)n2)cc1 [Compound I-75] |  | 30 to 200 | < 500
34 | CCOC(=O)c1ccc(Nc2ncn(-c3ccnc(N4CCCN(C(C)=O)CC4)c3)n2)cc1 [Compound I-76] |  | 30 to 200 | > 1000
35 | CC(=O)N1[C@H](C)CN(c2cc(-n3cnc(Nc4ccc(NC(=O)N(C)C)cc4)n3)ccn2)C[C@@H]1C [Compound I-77, 3-(4-{1-[2-(4-Acetyl-3,5-dimethyl-piperazin-1-yl)-pyridin-4-yl]-1H-[1,2,4]triazol-3-ylamino}-phenyl)-1,1-dimethyl-urea] |  | < 60 | 500 to 1000
36 | COC(=O)Nc1ccc(Nc2ncn(-c3ccnc(N4C[C@@H](C)N(C(C)=O)[C@@H](C)C4)c3)n2)cc1 [Compound I-78] |  | < 60 | < 500
37 | CC(=O)N1[C@H](C)CN(c2cc(-n3cnc(Nc4ccc(NC(=O)C(F)(F)F)cc4)n3)ccn2)C[C@@H]1C [Compound I-79] |  | < 60 | < 500
38 | CC(=O)N1[C@H](C)CN(c2cc(-n3cnc(Nc4ccc(NC(=O)c5cccs5)cc4)n3)ccn2)C[C@@H]1C [Compound I-80] |  | < 60 | 500 to 1000
39 | O=C(Nc1cc(-n2cnc(Nc3ccccc3)n2)ccn1)C1CCCCC1 [Compound I-93] |  |  | 500 to 1000
